Reference: the NIST ThermoML archive (doi:10.1021/acs.jced.9b00536)

Test: wn = mass fraction of the nth substance listed
Settings: 100 kPa, Liquid, Vibrating tube method

[Na+].[OH-] [sodium hydroxide] + O
mass density [kg/m3]
Settings | 303.15 K | 313.15 K | 323.15 K | 333.15 K | 343.15 K | 353.15 K
w1 = 0.2 | 1213.8 | 1208 | 1202.1 | 1196.1 | 1190 | 1184.4
w1 = 0.21 | 1223.5 | 1219 | 1213 | 1206.8 | 1200.5 | 1194
w1 = 0.22 | 1236.2 | 1230.3 | 1224.3 | 1218.1 | 1212 | 1206.4
w1 = 0.23 | 1246.1 | 1240.2 | 1234.1 | 1227.9 | 1221.8 | 1216.2
w1 = 0.24 | 1256.6 | 1250.6 | 1244.4 | 1238.3 | 1232.2 | 1226.7
w1 = 0.25 | 1268 | 1262 | 1256 | 1249.5 | 1243 | 1236.5
w1 = 0.26 | 1279.4 | 1273.3 | 1267.1 | 1260.8 | 1254.6 | 1249
w1 = 0.27 | 1289.2 | 1283 | 1276.7 | 1270.3 | 1264.1 | 1258.3
w1 = 0.28 | 1299 | 1293.7 | 1287.4 | 1281 | 1274.7 | 1269.1
w1 = 0.29 | 1311 | 1304.5 | 1298.5 | 1292 | 1285.5 | 1278.5
w1 = 0.3 | 1321.7 | 1315.4 | 1308.9 | 1302.4 | 1295.9 | 1289.9
w1 = 0.31 | 1330.9 | 1324.5 | 1318 | 1311.4 | 1304.9 | 1298.7
w1 = 0.32 | 1343.4 | 1337 | 1330.4 | 1323.8 | 1317.2 | 1311.1
w1 = 0.33 | 1353.5 | 1347 | 1340.4 | 1333.7 | 1327.1 | 1321
w1 = 0.34 | 1364.3 | 1357.8 | 1351.1 | 1344.4 | 1337.8 | 1331.6
w1 = 0.35 | 1372.5 | 1365.9 | 1359.2 | 1352.5 | 1345.9 | 1339.8
w1 = 0.36 | 1381.8 | 1375.5 | 1369 | 1362.9 | 1356.8 | 1349.8
w1 = 0.37 | 1393.6 | 1386.8 | 1380 | 1373.2 | 1366.5 | 1360.2
w1 = 0.38 | 1403.3 | 1396.5 | 1389.6 | 1382.8 | 1376.1 | 1369.9
w1 = 0.39 | 1413.5 | 1406.5 | 1400 | 1393 | 1386 | 1379.5
w1 = 0.4 | 1423.3 | 1416.3 | 1409.3 | 1402.4 | 1395.6 | 1389.6
w1 = 0.41 | 1432.9 | 1425.9 | 1418.9 | 1412 | 1405.1 | 1398.7
w1 = 0.42 | 1443.2 | 1436.2 | 1429.2 | 1422.2 | 1415.4 | 1409
w1 = 0.43 | 1452.9 | 1445.8 | 1438.8 | 1431.8 | 1425 | 1418.6
w1 = 0.44 | 1460.9 | 1453.8 | 1446.7 | 1439.7 | 1432.8 | 1426.3
w1 = 0.45 | 1470.7 | 1463.5 | 1456.5 | 1449.5 | 1442.6 | 1436.2
w1 = 0.46 | 1479.6 | 1472.7 | 1465.9 | 1459 | 1451.5 | 1445.2
w1 = 0.47 | 1489.7 | 1482.5 | 1475.3 | 1468.3 | 1461.4 | 1454.8
w1 = 0.48 | 1499.9 | 1492.6 | 1485.4 | 1478.3 | 1471.4 | 1465
w1 = 0.49 | 1509.4 | 1502.1 | 1494.9 | 1487.9 | 1481 | 1474.6
w1 = 0.5 | 1518.4 | 1511.1 | 1503.9 | 1496.9 | 1490 | 1483.6
